Measured values published in patent US20180344690A1, “Methods and Formulation for Enhancing Response to Radiotherapy” (The Board of Trustees of the Leland Stanford Junior …, priority 2017, published 2018).
Read-outs that look alike come from different tables or passages of the source.

How the values were obtained:
clinical = settings: human, in vivo
From the text: (§1) Patients underwent dynamic susceptibility contrast perfusion MRI (DSC-MRI) for quantification of relative cerebral blood volume (rCBV) values by region-of-interest analysis.

glioblastoma [1] = test: clinical
From the text: as §1

glioblastoma [2] = system: glioblastoma
Description: Normalized relative cerebral blood volume (rCBV) ratios were calculated by the mean rCBV within the 95% isodose radiation field one month post-radiation as compared to contralateral white matter outside of the radiation field.

in vivo = settings: human
[3] = cited from earlier work
[4] = up to 320 μg/kg, healthy volunteers; cited from earlier work
[5] = system: human serum albumin and 1-acid glycoprotein; settings: cited from earlier work
[6] = cited from earlier work; remark: listed apart in the source
[7] = cited from earlier work; for mean AUC from time 0 to 24 hours postdose, higher than in subjects with normal renal function: single 240 μg/kg SC
[8] = cited from earlier work; remark: listed apart in the source
[9] = system: peripheral blood (PB) CD34+ counts; settings: cited from earlier work; for absolute CD34+ cell count (mean+/−SE): all patients
CD34+ stem cells [10] = settings: cited from earlier work
CD34+ stem cells [11] = settings: cited from earlier work; remark: listed apart in the source
[12] = system: BCR-ABL(+) leukemia (CML); settings: cited from earlier work
CML = settings: cited from earlier work
AML [13] = settings: cited from earlier work
AML [14] = settings: cited from earlier work; remark: listed apart in the source
MM = settings: cited from earlier work
[15] = system: chronic lymphocytic leukemia (CLL); settings: cited from earlier work
[16] = cited from earlier work; remark: listed apart in the source
[17] = cited from earlier work; remark: listed apart in the source
[18] = Preclinical animal toxicology studies; settings: in vivo
[19] = 23 evaluable patients, with bortezomib

c1cc(CN2CCCNCCNCCCNCC2)ccc1CN1CCCNCCNCCCNCC1 [Plerixafor]
concentration at 7 days (clinical): ≥ 100 ng/mL
rCBV in the tumor bed compared to the postoperative pre-RT scan (glioblastoma [1]; DSC-MRI at 1 and 6 months post-RT, P<0.02, one way ANOVA): lower rCBV
patients alive (glioblastoma [1]; currently): 7 of 9
dose limiting toxicities (DLTs) (glioblastoma [1]; human, in vivo): no DLTs observed
longest survival since diagnosis (glioblastoma [1]; human, in vivo): 18 months
recommended phase II dose (glioblastoma [1]; human, in vivo, iv, 4 weeks): 16.6 µg/kg/h
rate of out of field recurrence (glioblastoma [2]; as of Feb. 7, 2017, expected 20%, p<0.03, Fisher's exact test): 77%
rCBV measured by DSC-MRI within the 95% isodose field (glioblastoma [2]; one month after radiation therapy, patients receiving Plerixafor compared to control, p<0.02): significant reduction
rCBV out of the radiation field (glioblastoma [2]; one-month post radiation therapy, Plerixafor compared to control patients): similar
blood flow to a tumor (U251 human GBM cells; after 40 days, radiotherapy and Plerixafor compared to radiotherapy alone (FIG. 5A)): lower blood flow
tumor size (U251 human GBM cells; over 80 days, radiation and Plerixafor (continuous infusion) compared to other treatment groups (FIG. 5B, 5C)): reduced tumor size
MTD (in vivo): ~1.8 mg/kg
Cmax and AUC0-∞ across the four dose levels ([3]; 10, 20, 40, 80 μg/kg): dose proportionality
Cmax ([3]; IV, 40 μg/kg): 292.8±67.0
Cmax ([3]; IV, 80 μg/kg): 503.9±29.6
Cmax ([3]; SC, 40 μg/kg): 123.5±27.9
Cmax ([3]; SC, 80 μg/kg): 238.3±17.3
terminal elimination half-life ([3]; following a single dose, bi-exponential elimination from plasma): 3.5 to 5 h
time of peak plasma levels ([3]; following subcutaneous administration): 0.5 to 1 h
bioavailability ([3]; human, in vivo): 80-90%
pharmacokinetics over the tested dose range [4]: linear pharmacokinetics
protein binding [5]: extensively protein bound
median terminal half-life ([6]; 240 μg/kg SC with G-CSF): 4.6 h
time of peak plasma concentrations ([6]; 240 μg/kg SC with G-CSF, in most patients): 0.5 h
time of maximum fold increase in circulating cells ([6]; after Plerixafor injection, all patients): approximately 10 hours
median maximum increase in the number of circulating cells from baseline ([6]; range, 3.0- to 5.5-fold): 4.2 fold
effect of renal impairment on maximal plasma concentrations ([7]; human, in vivo): no effect
mean AUC from time 0 to 24 hours postdose, higher than in subjects with normal renal function ([7]; mild renal impairment): 7%
mean AUC from time 0 to 24 hours postdose, higher than in subjects with normal renal function ([7]; moderate renal impairment): 32%
mean AUC from time 0 to 24 hours postdose, higher than in subjects with normal renal function ([7]; severe renal impairment): 39%
safety profile ([7]; subjects with renal impairment vs controls): similar
Plerixafor clearance ([7]; subjects with renal impairment, positively correlated with creatinine clearance): reduced
Sinus tachycardia (all Grade 1) ([8]; 400 and 480 μg/kg doses): observed in most subjects
maximum tolerated dose ([8]; doses of up to 480 μg/kg SC and IV in healthy volunteers and cancer patients): has not been established
common adverse events ([8]; doses up to 480 μg/kg): diarrhea, injection site erythema, perioral numbness, sinus tachycardia, headache, nausea, abdominal distention and injection site pain
total white blood cell (WBC) and peripheral blood (PB) CD34+ counts ([9]; 4 and 6 hours following a single injection): rapid and statistically significant increase
absolute CD34+ cell count (mean+/−SE) ([9]; 4 hours after injection, baseline 2.6+/−0.7/μL, P=0.002): 15.6 ± 3.9 µL⁻¹
absolute CD34+ cell count ([9]; 4 hours, 160 μg/kg group): 11.3 ± 2.7 µL⁻¹
absolute CD34+ cell count ([9]; 4 hours, 240 μg/kg group): 19.3 ± 6.9 µL⁻¹
absolute CD34+ cell count (mean+/−SE) ([9]; 6 hours after injection, P=0.003): 16.2 ± 4.3 µL⁻¹
absolute CD34+ cell count ([9]; 6 hours, 160 μg/kg group): 11.3 ± 2.5 µL⁻¹
absolute CD34+ cell count ([9]; 6 hours, 240 μg/kg group): 20.4 ± 7.6 µL⁻¹
toxicities ([9]; single injection 160 or 240 μg/kg): only grade 1 toxicities were observed
proportion of patients with NHL able to mobilize minimum (2×10^6 cells/kg) and target (5×10^6 cells/kg) CD34+ cells (CD34+ stem cells [10]; Plerixafor 240 μg/kg added to G-CSF): significantly increased the proportion of patients
apheresis days to reach both targets (CD34+ stem cells [10]; Plerixafor added to G-CSF): significantly fewer apheresis days
proportion of patients with MM able to mobilize the target (6×10^6 cells/kg) CD34+ cells (CD34+ stem cells [11]; Plerixafor 240 μg/kg added to G-CSF compared with G-CSF alone): significantly increased the proportion of patients
apheresis days to reach target (CD34+ stem cells [11]; Plerixafor added to G-CSF): significantly fewer apheresis days
sensitivity to the tyrosine kinase inhibitors Imatinib and Nilotinib [12]: confer added sensitivity
tumor cell chemotaxis [12]: inhibit tumor cell chemotaxis
leukemia burden in mice (CML; added to nilotinib, vs nilotinib alone): significantly reduced
mobilization of leukemic cells (CML; in vivo): mobilize leukemic cells in vivo
early death due to complications from infection (AML [13]; 2 patients): 6%
treatment failure due to persistent disease (AML [13]; 14 patients): 44%
complete remission (CR+CRi) (AML [13]; 32 evaluable patients at 240 μg/kg, historical CR rates 25-35%): 50%
platelet recovery (plt >50 k/mm3), median (AML [13]; Plerixafor + MEC, range 20-40 d): 26 days
neutrophil recovery (ANC >500/mm3), median (AML [13]; Plerixafor + MEC, range 21-37): 27 days
time of peak AML blast mobilization (AML [13]; after administration): 6 to 8 h
One year KM estimate of overall survival (AML [13]; in vivo): 56%
common grade 3 adverse events (AML [13]; in vivo): cytopenias and infections
hyperleukocytosis (AML [13]; in vivo): No evidence of hyperleukocytosis
mobilization of AML blasts into the peripheral circulation, mean increase (AML [13]; range 0.9-7.3 fold): 2.5 fold
Plerixafor unrelated deaths (AML [14]; 4 patients, 240 μg/kg): 17%
complete response (CR) (AML [14]; 14 of 21 patients with available data): 67%
DLTs (AML [14]; 240, 320, 400, 480 μg/kg IV): No DLTs have been reported
patients with adverse events at least possibly related to Plerixafor (AML [14]; Eighteen patients): 86%
patients with Grade 3 Plerixafor-related AEs (AML [14]; Four patients): 19%
patients with Grade 4 related AEs (AML [14]; One patient, 480 μg/kg cohort, thrombocytopenia and asymptomatic pulmonary embolism): 5%
time of peak PB AML blasts (AML [14]; day 2, after administration): 2 to 4 h
increase in PB AML blasts, mean (AML [14]; day 7): 1.51 fold
median time to neutrophil (0.5×109/L) recovery for responders (AML [14]; in vivo): 19.5 (range 13-35) days
median time to platelet (100×109/L) recovery for responders (AML [14]; in vivo): 21 (range 17-37) days
rise in PB AML blasts, mean increase (AML [14]; infusion on day 2): 3.01 fold
severity of the majority of related adverse events (AML [14]; mainly gastrointestinal disorders): grade ½
MR (MM; [19]): 13%
complete response (CR) (MM; [19]): 4%
overall response rate (including MR) (MM; [19]): 22%
progressive disease (PD) as best response (MM; [19]): 13%
very good partial response (VGPR) (MM; [19]): 4%
Dose limiting toxicities including insomnia, restlessness, and psychosis (MM; dose level 6 (Plerixafor 400 μg/kg and bortezomib 1.3 mg/m^2)): observed in two patients
de-adhesion of MM cells and accessory cells (MM; in vivo): transient de-adhesion of MM cells and accessory cells in vivo in most of the patients
Grade 3 anemia (MM; with bortezomib): 10%
Grade 3 bone fracture due to myeloma bone disease (MM; with bortezomib): 10%
Grade 3 hypercalcemia (MM; with bortezomib): 10%
Grade 3 hyponatremia (MM; with bortezomib): 10%
Grade 3 hypophosphatemia (MM; with bortezomib): 20%
Grade 3 lymphopenia (MM; with bortezomib): 40%
grade 4 toxicities (MM; with bortezomib): no grade 4 toxicities
tolerability of the combination (MM; with bortezomib): well tolerated
mobilization of CLL cells ([15]; 80, 160, 240, 320 μg/kg, preliminary results): mobilized to the peripheral blood in a dose-dependent fashion
tolerability of the combination of Plerixafor and rituximab ([15]; CLL patients with WBC <50×109/L): well tolerated
dose limiting toxicities ([15]; with rituximab): no dose limiting toxicities were reported
most common adverse events ([15]; with rituximab): nausea, fatigue, chills, and diarrhea
remissions ([15]; with rituximab): partial remissions were seen in a proportion of patients
MTD ([16]; animals, adverse neurologic effects): approximately 70 mg/m^2
dose limiting toxicities (DLTs) ([16]; including severe dyspnea, tremors, ventral recumbency, convulsions at higher dosages): primarily adverse neurologic events
adverse events that occurred more frequently with Plerixafor than placebo ([17]; G-CSF plus Plerixafor 240 μg/kg SC): insomnia, headache, dizziness, diarrhea, nausea, flatulence, abdominal pain, vomiting, abdominal distention, dry mouth, stomach discomfort, constipation, dyspepsia, hypoaesthesia oral, arthralgia, musculoskeletal pain, hyperhidrosis, erythema, injection site reactions, fatigue, and malaise
tolerability ([17]; Plerixafor 240 μg/kg in conjunction with G-CSF, NHL or MM): well-tolerated
PMN and PLT engraftment of mobilized hematopoietic stem cells ([17]; Plerixafor and G-CSF compared to G-CSF alone, both trials): equally capable of prompt and durable PMN and PLT engraftment
approximate human equivalent dose of early adverse neurologic effects [18]: 470-940 μg/kg
